This is an account of results in the Bradley open melting point set (2014).

Where “and” joins values, the source holds several entries; their conditions need not be identical. Equal entries are not always repeated.

`Brc1ccc(-c2ccc(Br)cc2)cc1` [p,p'-dibromobiphenyl] yielded a melting point of 170 °C.
Molecule `CCOC(=O)CC(C)C` [ethyl_isovalerate] showed a melting point of -99 °C.
Under `O=S(=O)(O)Cl` [Sulfurochloridic acid] stands -80 °C.
Under `CCCCCCCCCCOc1ccc(/C=N/c2ccc(/C=C/C(=O)OCC)cc2)cc1` stands 115 °C; under `N#CCc1cccc(C(F)(F)F)c1Cl` [2-chloro-3-(trifluoromethyl)phenylacetonitrile], 58 °C.
The figure for `BrC(Br)c1ccccc1C(Br)Br` [alpha,alpha,alpha',alpha'-tetrabromo-o-xylene] is 116 °C; for `ClC1CCCCC1` [chlorocyclohexane] it is -44 °C.
`COc1ccc(C(C)(C)C)cc1B(O)O` [5-tert-butyl-2-methoxybenzeneboronic acid] gave a melting point of 105 °C.
The figure for `CC(=O)OCCCCOC(C)=O` [1,4-diacetoxybutane] is 13 °C; for `CC(C)(C)OC(=O)C(C(=O)Cc1ccccc1)c1ccccc1` (stereo not given) [tert-butyl 3-oxo-2,4-diphenylbutanoate] it is 83 °C.
The figure for `CCCCCCCCCCCC(C)=O` [2-tridecanone] is 30 °C; for `COC(=O)c1ccc(/C=C\c2ccc(C(=O)OC)cc2)cc1` [dimethyl cis-stilbene-4,4'-dicarboxylate] it is 113 °C; for `c1ccc(-c2ccc(-c3ccccc3)cc2)cc1` [p-terphenyl] it is 214 °C.
The figure for `O=C(O)c1cc(Cl)ccc1Cl` [2,5-dichlorobenzoic acid] is 153 °C.
`CC(C)C(=O)C(C)C` [diisopropyl ketone] showed a melting point of -69 °C.
Under `CCCCCCCCCCCCCCCO` [1-pentadecanol] stands 46 °C; under `O=C1CCC(N2C(=O)c3ccccc3C2=O)C(=O)N1` (stereo not given) [Thalidomide], 275 °C.
`CCOC(=O)c1cnn(C)c1N` [ethyl 5-amino-1-methyl-1h-pyrazole-4-carboxylate] displayed a melting point of 100 °C.
Under `Cc1ccc(C(=O)O)cc1F` [3-fluoro-4-methylbenzoic acid] stands 170 °C.
The figure for `COc1ccc(CN)cc1` [4-methoxybenzylamine] is -10 °C; for `COc1cc(B(O)O)ccc1C` [3-methoxy-4-methylbenzeneboronic acid] it is 193 °C.
Under `Nc1cccc(Cc2cccc(N)c2)c1` [3,3'-diaminodiphenylmethane] stands 82 °C.
Turning to `CCCCCCC=O` [Heptanal], the melting point is -43 °C.
Under `O=C(O)Cc1ccccc1OCc1ccccc1` [2-benzyloxyphenylacetic acid] stands 97 °C.
The figure for `O=C(Oc1cccc(OC(=O)c2ccccc2)c1)c1ccccc1` [1,3-dibenzoyloxybenzene] is 118 °C; for `O=[N+]([O-])c1cccc(F)c1O` [2-fluoro-6-nitrophenol] it is 93 °C; for `[O-][n+]1ccc(OCc2ccccc2)cc1` [4-benzyloxypyridine n-oxide] it is 174 °C.
`Cc1ccco1` [2-methylfuran] displayed a melting point of -89 °C.
Under `O=Cc1ccc([N+](=O)[O-])cc1` [4-nitrobenzaldehyde] stands 105 °C; under `COC(=O)C1=Nc2ccccc2C1(C)C` [methyl 3,3-dimethyl-3H-indole-2-carboxylate], 75 °C; under `CC(=O)OC1CCC2(C)C3CCC4=C(CCC4(C)C#CCl)C3CCC2(C)C1` (stereo not given) [17-(chloroethynyl)-5,10,17-trimethylgon-13-en-3-yl acetate], 110 °C.
Molecule `CCCCCCCCCCCC(=O)OCCCC` [N-butyl dodecanoate] had a melting point of -10 °C.
Turning to `O=Cc1ccc(Cl)cc1` [4-chlorobenzaldehyde], the melting point was 46 °C and 48.5 °C and 47 °C.
The figure for `c1ccc(Nc2ccccc2)cc1` [Diphenylamine] is 53 °C; for `Cc1cc(C=O)c(C)n1-c1ccc(C(F)(F)F)cc1` [OSM-S-34] it is 86 °C.
Under `N#CCC(=O)c1cccs1` [3-oxo-3-(2-thienyl)propionitrile] stands 134 °C.
Under `Clc1ccc(C(Cn2ccnc2)OCc2csc3c(Cl)cccc23)c(Cl)c1` (stereo not given) [sertaconazole] stands 146 °C; under `Cn1nc(CC#N)c2c(N)ncnc21`, 137 °C; under `N#Cc1cc(Cl)cc(Cl)c1` [3,5-dichlorobenzonitrile], 66 °C.
Molecule `CC(=O)NC1C(OC(C)=O)OC(COC(C)=O)C(OC(C)=O)C1OC(C)=O` (stereo not given) registered a melting point of 140 °C.
As for `O=C(O)/C=C/c1ccc(F)c(F)c1` [3,4-difluorocinnamic acid], the melting point came to 195 °C.
The figure for `CCCCc1c2c(cc3c1-c1ccccc1OC3)CC(C)(C)CC2=O` is 87 °C; for `O=Cc1cc(O)ccc1O` [2,5-dihydroxybenzaldehyde] it is 99 °C.
Molecule `O=c1c(O)c(-c2ccc(O)cc2)oc2ccccc12` [3,4'-dihydroxyflavone] came in with a melting point of 286 °C.
Under `O=C(O)c1cc(=O)[nH]c(=O)[nH]1` [orotic acid] stands 345 °C; under `Nc1ccc(N=Nc2ccccc2)c(N)n1` [phenazopyridine], 139 °C.
`COc1ccc(C=O)cc1` [p-anisaldehyde] had a melting point of 1 °C.
Under `O=Cc1ccc2c(c1[N+](=O)[O-])C(=O)c1c(Cl)c(Cl)c(Cl)c(Cl)c1C2=O` stands 267 °C; under `CC(C)Oc1ccc2c(=O)c(-c3ccccc3)coc2c1` [ipriflavone], 115 °C.
The figure for `CCCC(=O)OCSc1ncnc2c1ncn2COC(=O)CCC` [S6,9-Bis(butanoyloxymethyl)-6-mercaptopurine] is 69 °C; for `CC(=O)Nc1ccccc1` [acetanilide] it is 114 °C.
For `C[C@H]1CCC[C@@H]1C` (relative stereo) [trans-1,2-dimethylcyclopentane], the melting point is -118 °C.
Under `CC(CP(=O)(O)O)P(=O)(O)O` (stereo not given) [propylenediphosphonic acid] stands 178 °C; under `Cc1ccc(-n2c(C)ccc2C)cc1` [OSM-S-26], 45.5 °C; under `COC(=O)c1c(N)sc2c1CCCC2`, 128 °C.
In turn, `COC(=O)c1ccc(C=O)cc1` [Methyl 4-formylbenzoate] displayed a melting point of 61 °C.
Under `O=Cc1ccccc1[N+](=O)[O-]` [o-nitrobenzaldehyde] stands 46 °C; under `Cc1ccc(B(O)O)c(C)c1` [2,4-dimethylbenzeneboronic acid], 206 °C; under `CCOc1ccc(NC(C)=O)cc1` [Phenacetin], 135 °C.
`Clc1ccc(SSc2ccc(Cl)cc2)cc1` [bis(4-chlorophenyl) disulfide] had a melting point of 73 °C.
The figure for `OC[C@@H](O)[C@H](O)[C@@H](O)CO` [D-Xylitol] is 104 °C; for `CC1(C)[C@H]2CC[C@]1(C)[C@H](O)C2` [borneol] it is 207 °C; for `CC(=O)Oc1ccc(C(N)=O)cc1` [p-acetoxybenzamide] it is 179 °C.
Under `CCCCC=O` [pentanal] stands -91 °C.
Under `OC/C=C\CO` [cis-2-butene-1,4-diol] stands 7 °C; under `OCc1ccccc1Br` [o-bromobenzyl alcohol], 81 °C; under `CC(=O)c1ccc(S(=O)(=O)NC(=O)NC2CCCCC2)cc1` [Acetohexamide], 189 °C.
With `COc1ccc(C(C)(C)C)cc1C(=O)O` [5-tert-butyl-2-methoxybenzoic acid], the melting point turned out to be 75 °C.
The figure for `CCCCCCC(=O)OCC` [ethyl heptanoate] is -66 °C; for `Oc1cccc(Cl)c1Cl` [2,3-dichlorophenol] it is 58 °C and 56 °C; for `OC(c1ccccc1)(c1ccccc1)C(O)(c1ccccc1)c1ccccc1` [benzopinacol] it is 177 °C.
Under `N#Cc1cccc(C(F)(F)F)c1` [3-(trifluoromethyl)benzonitrile] stands 16 °C.
The figure for `OCc1cccc(B(O)O)c1` [3-(hydroxymethyl)benzeneboronic acid] is 96 °C; for `O=[N+]([O-])c1ccc(CCl)cc1` [4-nitrobenzyl chloride] it is 72 °C.
For the molecule `CCCCCCCCC(=O)OCC` [ethyl nonanoate], the melting point was -44 °C.
The figure for `CN(C)c1ccc(C2CNCCN2)cc1` (stereo not given) [N,N-dimethyl-4-(2-piperazinyl)aniline] is 128 °C; for `C1=CCCCC1` [Cyclohexene] it is -104 °C.
Under `CCC1=C(/C=N/Nc2ccc([N+](=O)[O-])cc2[N+](=O)[O-])CCCC1` stands 194 °C; under `O=CNc1ccccc1` [formanilide], 47 °C.
Under `C=CCC1([C@H](C)CCC)C(=O)NC(=O)NC1=O` [Secobarbital] stands 100 °C; under `Cc1cc(C(F)(F)F)n2nc(N)c(/N=N/c3c(Br)cc(Br)cc3Br)c2n1`, 99 °C.
Regarding `CC(C)(C)OC(=O)/N=N/C(=O)OC(C)(C)C` [di-tert-butyl azodicarboxylate], the melting point turned out to be 91 °C.
In turn, `CCOC(=O)c1ccccc1C(=O)OCC` [Diethyl phthalate] showed a melting point of -3 °C.
The molecule `O=C1CCCCC1c1ccccc1` (stereo not given) [2-phenylcyclohexanone] registered a melting point of 58 °C.
The figure for `ClCCOc1ccccc1` [b-chlorophenetole] is 28 °C; for `CCOC(=O)C1=C(C(=O)OCC)C(C)N=N1` (stereo not given) [diethyl 5-methyl-1H-pyrazole-3,4-dicarboxylate] it is 99 °C.
Under `CN[C@@H](C)[C@H](O)c1ccccc1` [ephedrine] stands 34 °C; under `OB(O)c1cccnc1F` [2-fluoropyridine-3-boronic acid], 172 °C.
For the molecule `CCCCCCCCCCC` [N-undecane], the melting point is -26 °C.
Under `Cc1cccc(C)c1N` [2,6-dimethylaniline] stands 12 °C.
